Laboratory results taken from the supplement of paper PMC10307832.

Assays:
Experiment in all cases: relative viability (nuclei count vs DMSO), 5 days (fraction); higher = more cells survive
[1] = compound: CCOc1cc2ncc(C#N)c(Nc3ccc(OCc4ccccn4)c(Cl)c3)c2cc1NC(=O)/C=C/CN(C)C [Neratinib] + CC1(C)CCC(c2ccc(Cl)cc2)=C(CN2CCN(c3ccc(C(=O)NS(=O)(=O)c4ccc(N[C@H](CCN5CCOCC5)CSc5ccccc5)c(S(=O)(=O)C(F)(F)F)c4)cc3)CC2)C1 [Navitoclax] (partner 0.5 µM)
In short: (§1)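 Relative viability equals treated-well nuclei counts divided by vehicle-well nuclei counts. Counts came from 4× images of lung cancer cell lines grown in 1536-well plates for 5 days after pin-tool dosing on the day after seeding. Dosing used one drug alone or a fixed anchor-drug dose plus five library-drug doses (not always all listed) in √10 steps, and values are medians of duplicate plates.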

[2] = compound: CCOc1cc2ncc(C#N)c(Nc3ccc(OCc4ccccn4)c(Cl)c3)c2cc1NC(=O)/C=C/CN(C)C [Neratinib] + C[C@]1(O)C[C@@H](c2nc(-c3ccc4ccc(-c5ccccc5)nc4c3)c3c(N)nccn32)C1 [Linsitinib] (partner 1 µM)
In short: as §1

[3] = compound: CCOc1cc2ncc(C#N)c(Nc3ccc(OCc4ccccn4)c(Cl)c3)c2cc1NC(=O)/C=C/CN(C)C [Neratinib] + Cc1nc(NC(=O)N2CCC[C@H]2C(N)=O)sc1-c1ccnc(C(C)(C)C(F)(F)F)c1 [Alpelisib] (partner 2 µM)
In short: as §1

[4] = compound: CCOc1cc2ncc(C#N)c(Nc3ccc(OCc4ccccn4)c(Cl)c3)c2cc1NC(=O)/C=C/CN(C)C [Neratinib] + O=C(CCCCCCC(=O)Nc1ccccc1)NO [Vorinostat] (partner 1 µM)
In short: as §1

| Cell Line | relative viability ([1]; first compound 0.01 µM) | relative viability ([1]; first compound 0.03162 µM) | relative viability ([1]; first compound 0.1 µM) | relative viability ([1]; first compound 0.3162 µM) | relative viability ([1]; first compound 1 µM) | relative viability ([2]; first compound 0.01 µM) | relative viability ([2]; first compound 0.03162 µM) | relative viability ([2]; first compound 0.1 µM) | relative viability ([2]; first compound 0.3162 µM) | relative viability ([2]; first compound 1 µM) | relative viability ([3]; first compound 0.01 µM) | relative viability ([3]; first compound 0.03162 µM) | relative viability ([3]; first compound 0.1 µM) | relative viability ([3]; first compound 0.3162 µM) | relative viability ([3]; first compound 1 µM) | relative viability ([4]; first compound 0.01 µM) | relative viability ([4]; first compound 0.03162 µM) | relative viability ([4]; first compound 0.1 µM) | relative viability ([4]; first compound 0.3162 µM) | relative viability ([4]; first compound 1 µM) |
| --- | --- | --- | --- | --- | --- | --- | --- | --- | --- | --- | --- | --- | --- | --- | --- | --- | --- | --- | --- | --- |
| PC-14 | 0.988 | 1.01 | 0.928 | 0.936 | 0.24 | 0.979 | 1.1 | 0.872 | 0.639 | 0.216 | 1.04 | 0.978 | 0.83 | 0.732 | 0.208 | 0.773 | 0.754 | 0.557 | 0.359 | 0.0625 |
| NCI-H2342 | – | – | – | – | – | – | – | – | – | – | – | – | – | – | – | 0.797 | 0.88 | 0.647 | 0.585 | 0.54 |
| HCC-366 | 1.08 | – | 0.975 | 1.11 | 1.02 | 0.736 | 0.734 | – | 0.759 | 0.614 | 0.716 | 0.418 | 0.402 | – | 0.35 | 0.337 | 0.408 | 0.345 | 0.381 | 0.312 |
| HOP-62 | – | 1.07 | 1.1 | 0.996 | 1.1 | 0.864 | 1.03 | 1.06 | 1.09 | 1.07 | 0.903 | 1 | 0.847 | 0.967 | – | 0.608 | 0.691 | 0.586 | – | 0.72 |
| NCI-H1944 | 1.03 | 1 | 0.871 | 0.814 | 0.677 | 1.28 | 1.08 | 0.93 | 0.645 | 0.435 | 0.948 | 0.782 | 0.615 | 0.561 | 0.393 | 0.657 | 0.544 | 0.474 | 0.501 | 0.456 |
| NCI-H596 | 0.998 | 1.01 | 0.954 | 1.04 | 0.787 | 1.2 | 1.07 | 0.995 | 0.923 | 0.791 | 0.464 | 0.474 | 0.433 | 0.489 | 0.304 | 0.5 | 0.641 | 0.631 | 0.622 | 0.73 |
| LU99A | – | 0.881 | 0.708 | 0.799 | 0.359 | 0.608 | 0.643 | 0.365 | 0.575 | 0.215 | 0.66 | 0.625 | 0.483 | 0.323 | 0.259 | 0.428 | 0.465 | 0.469 | 0.529 | 0.43 |
| EBC-1 | 0.439 | 0.408 | 0.41 | 0.339 | 0.219 | 0.932 | 1.08 | 0.842 | 0.914 | 1.04 | 0.912 | 0.958 | 0.795 | 0.754 | 0.517 | – | – | – | – | – |
| SW 900 | – | – | – | – | – | – | – | – | – | – | – | – | – | – | – | 0.414 | 0.738 | 0.473 | 0.451 | 0.506 |
| ABC-1 | – | – | – | – | – | 0.781 | – | 0.611 | 0.433 | 0.292 | 1.16 | 1.04 | 0.726 | 0.904 | 0.384 | 1.57 | – | 0.813 | 1.13 | 0.713 |
